The values below come from US20140322076A1, “ANTIMICROBIAL COMPOSITION” (priority 2011, published 2014).

Test [1] concerns Escherichia coli (10536 strain). The experiment in a line: Antimicrobial efficacy, 15 seconds contact suspension assay (Examples 1 and 3). The test is classed as cell-based. The note with it: contact time 15 seconds; for NMBS (mean bacterial survival): phenol and terpineol concentration (% w/v) as given per example, 0 = complete kill, triplicate; for NMBS: Example 3, gamma-terpineol, concentrations (% w/v) as given per example. Here is the method: The efficacies of antimicrobial agents can be usefully compared by determining the Minimum Biocidal Concentration (MBC). The MBC is defined as the lowest absolute concentration of the particular active that provides complete kill (zero bacterial growth).
ΣFBC=FBC(component 1)+FBC(component 2)+FBC(component 3)+ . . . etc
such that • ΣFBC≧1 corresponds to additive or antagonistic bactericidal activity • ΣFBC<1 corresponds to synergistic bactericidal activity
Antimicrobial efficacy is tested against a representative pathogenic bacterial organism, Gram negative Escherichia coli. Concentrations of actives are expressed in terms of the percentage weight/volume (% w/v) throughout Example 1.
An overnight culture of Escherichia coli (10536 strain) was prepared in 50 ml total volume of TSB broth, grown for ca. 18 hrs at 37° C. and shaken at 150 rpm. 1 ml of this overnight E. coli culture was transferred to 50 ml of fresh TSB broth and incubated at 37° C. at 150 rpm for ca. 4 hours. This culture was separated into equal volumes and centrifuged at 4000 rpm for 15 minutes, washed with sterile saline (0.85% NaCl), centrifuged once more and re-suspended in saline to give a final concentration of 0.8 OD620 equivalent to about 10^8 cells per millilitre for this particular organism. Here, OD620 indicates the absorbance of a sample in a cuvette of 1.0 cm path length at a wavelength of 620 nm. This bacterial stock was used for assaying against antimicrobial actives (in triplicate).
The following assay describes the testing of 8 materials using 6 dilutions across half of a 96-well micro titre plate (MTP). Using this approach it is possible to assay 16 actives (without replicates) with one full dilution plate, replicating this set up in two halves of the plate columns, 1-6 and 7-12.
1M solutions of the test actives were prepared in dimethylsulphoxide (DMSO).
Aliquots (270 μl) of the materials at 1.11 times the final concentration were dispensed into the wells of the MTP along one column (A1-H1). This MTP was labelled as the “Screening plate”.
In another MTP, labelled as the “Dilution plate”, 270 μl of D/E neutralising solution from DIFCO Composition was added to column 1. The composition of the neutralising solution was as follows: pancreatic digest of casein, 5.0 g/L; Yeast Extract, 2.5 g/L; Dextrose, 10 g/L, sodium thioglycollate, 1.0 g/L, sodium thiosulphate, 6.0 g/L; sodium bisulphite, 2.5 g/L; Polysorbate 80, 5.0 g/L; lecithin 7.0 g/L; bromocresol purple, 0.02 g/L with a pH in the range 7.6±0.2.
270 μl of tryptone diluent solution was added to all the remaining wells of the Dilution MTP (columns 2-6).
Bacterial stock (30 μl) was then added to the prepared 270 μl of the solution of actives in the Screening Plate and mixed, using a multichannel pipette with 8 tips to aspirate and dispense the same volume of bacterial stock in parallel to 8 wells in rows A-H. After a contact time of 15 seconds, the mixtures were quenched by transferring 30 μl volumes of the mixtures into the 270 μl D/E neutralising solution in the prepared dilution plate, using aspiration to mix. After exactly 5 minutes in the D/E neutralising solution, 30 μl volumes were transferred from column 1 to column 2 of the Dilution MTP and mixed, before transferring further 30 μl volumes from column 2 into column 3. This process was repeated serially diluting the bacteria across the plate to column 6.
30 μl volumes from each well in the Dilution MTP were transferred onto pre-labelled segment of Tryptone Soya Agar (TSA) plates starting from the lowest bacterial concentration (highest dilution, column 6) to the highest bacterial concentration (column 1). The TSA plates were allowed to stand for ca. 2 hours so that the 30 μl inocula spots could dry and the plates were then inverted and incubated overnight at 37° C. before enumerating the bacterial colonies at the labelled dilutions to determine the effects of the actives on bacterial growth.

For test [2], the system named is Escherichia coli (E. coli - ATCC #10536). In words: Automated assessment of efficacy in surfactant base (Example 4). The following applies: 15 seconds exposure; for DeltaOD (450 nm) Mean: OD450 (16 hours) − OD450 (time zero), 2.85% sodium cocoyl glycinate + 1.85% sodium lauroamphoacetate; for DeltaOD (450 nm) Mean / DeltaOD (590 nm) Mean: pH 10; for DeltaOD (590 nm) Mean: OD590 (16 hours) − OD590 (time zero), same surfactant solution; for Nrep = No. of replicates showing growth (out of 4): surfactant solution pH 10. Type of test: cell-based. How it is done:
In these examples, the efficacy of combinations of isopropylmethylphenols and terpineol were tested in a surfactant cleansing formulation comprising 2.85% sodium cocoyl glycinate and 1.85% sodium lauroamphoacetate. This corresponds to a 50% in use dilution with water of a typical neat formulation containing 5.7% cocoyl glycinate and 3.7% % sodium lauroamphoacetate during hand washing. Solutions were prepared such that the concentrations of the surfactant components and test actives were 1.1 times the final desired concentration in order to allow for dilution with the bacterial inoculum in the test. The solutions were manually adjusted to pH 10.0 by dropwise addition of sodium hydroxide solution, as measured with a pH meter at ambient temperature. Solutions of the isopropylmethylphenols and/or terpineols were prepared at a maximum of 24 hours before testing. The same terpineol was used as in Example 1.
The efficacy of the combinations of the present invention was determined against the same bacterium as in Example 1, Escherichia coli (E. coli—ATCC #10536), at a concentration of approximately 1×10^8 bacteria per mL.
Tests were conducted using standard microtiter plate assays using an automated liquid handling system. 270 μl of the surfactant test solution was pipetted into each well of the microtitre plate (Nunc F Gamma Irradiated 96F untreated microtitre plates of clear polystyrene) and 30 μl of the bacterial suspension was then added. After exactly 15 seconds of bacterial exposure, a 30 μl volume of bacterial cells was withdrawn and transferred to 270 μl of D/E quench solution. After 5 minutes in the D/E quench, the optical density (OD) was measured for each plate in turn at two specific wavelengths (450 nm and 590 nm). These provide a dual check of antimicrobial activity, as the OD450 reading is specific for the yellow colour of D/E quench when bacterial growth is observed, whereas OD590 is specific for the initial purple colour of the D/E quench which is retained if no bacterial growth is observed. After the time zero OD measurements, plates were then incubated at 37° C. overnight (16 hours) before repeating the OD measurements. Delta OD values were calculated by subtracting […] at time=16 hours.
Bacterial growth is observed as an increase in OD450 and a decrease in OD590. To identify antibacterially efficacious systems (those preventing appreciable bacterial growth after incubation), the following threshold changes in OD readings have been adopted: if (1). OD450 increases by less than 0.2 absorbance unit (AU) on incubation and (2). OD590 decreases by less than 0.35 AU on incubation. Conversely, where OD450 increases by more than 0.1 AU and OD590 decreases by more than 0.1 AU after incubation, corresponding to a colour shift from purple to yellow, the test system allows bacterial growth and is not deemed efficacious. Four replicate measurements in the same plate have been made for each test system. The number of replicate wells showing either bacterial growth or no growth is also readily assessed by eye by following the colour change. Thymol and terpineol were tested both alone and in combination for comparison purposes.
In each case, binary mixtures were assessed in the weight to weight ratio isopropylmethylphenol to alpha terpineol of 1:2.5.

SMILES strings stand for the structures.

On to `CC1=CCC(O)(C(C)C)CC1` (centres unmarked) [1:4, terpineol], for which the “NMBS (mean bacterial survival)” value in test [1] is 0 log CFU/ml.
Regarding `CC(C)=C1CCC(C)(O)CC1` (centres unmarked) [3:3, gamma-terpineol], the NMBS in test [1] turned out to be 0 log CFU/ml.
Regarding `CC1=CCC(O)(C(C)C)CC1` (centres unmarked) [4:13, terpineol], in test [2], the “DeltaOD (450 nm) Mean” value is listed as −0.51, the “DeltaOD (590 nm) Mean” value came to 0.57 and the “Nrep = No. of replicates showing growth (out of 4)” value stood at 4.
In the same order, the values of `Cc1cc(O)cc(C(C)C)c1` [4:18, 3-isopropyl-5-methylphenol] are −0.54, 0.63 and 4.
In the same order, the values of `CC1=CCC(O)(C(C)C)CC1` (centres unmarked) [4:15, terpineol] are −0.56, 0.55 and 4.
In the same order, the values of `CC1=CCC(O)(C(C)C)CC1` (centres unmarked) [4:12, terpineol] are −0.48, 0.58 and 4.
On to `CC1=CCC(O)(C(C)C)CC1` (centres unmarked) [1:7, terpineol], for which the “NMBS (mean bacterial survival)” value in test [1] was 7 log CFU/ml.
Turning to `Cc1cc(O)ccc1C(C)C` [4:26, 4-isopropyl-3-methylphenol], in test [2], the “DeltaOD (450 nm) Mean” value is given as −0.46, the “DeltaOD (590 nm) Mean” value was determined as 0.67 and the “Nrep = No. of replicates showing growth (out of 4)” value worked out at 4.
As for `Cc1cc(O)cc(C(C)C)c1` [4:19, 3-isopropyl-5-methylphenol], in test [2], the “DeltaOD (450 nm) Mean” value is −0.53, the “DeltaOD (590 nm) Mean” value was determined as 0.58 and the “Nrep = No. of replicates showing growth (out of 4)” value came to 4.
Consider `CC1=CCC(O)(C(C)C)CC1` (centres unmarked) [4:16, terpineol], for which, in test [2], the “DeltaOD (450 nm) Mean” value is on record as −0.57, the “DeltaOD (590 nm) Mean” value came out at 0.55 and the “Nrep = No. of replicates showing growth (out of 4)” value turned out to be 4.
As to `Cc1cc(O)ccc1C(C)C` [1:13, 4-isopropyl-3-methylphenol], in test [1], the “NMBS (mean bacterial survival)” value worked out at 7.6 log CFU/ml.
As for `CC(C)=C1CCC(C)(O)CC1` (centres unmarked) [3:1, gamma-terpineol], the NMBS in test [1] worked out at 0 log CFU/ml.
In the case of `Cc1cc(O)cc(C(C)C)c1` [4:21, 3-isopropyl-5-methylphenol], in test [2], the “DeltaOD (450 nm) Mean” value is −0.57, the “DeltaOD (590 nm) Mean” value turned out to be 0.56 and the “Nrep = No. of replicates showing growth (out of 4)” value came out at 4.
Turning to `Cc1ccc(C(C)C)c(O)c1` [4:2, thymol], in test [2], the “DeltaOD (450 nm) Mean” value was −0.54, the “DeltaOD (590 nm) Mean” value is 0.64 and the “Nrep = No. of replicates showing growth (out of 4)” value turned out to be 4.
In the case of `Cc1ccc(C(C)C)c(O)c1` [4:9, thymol], in test [2], the “DeltaOD (450 nm) Mean” value is −0.55, the “DeltaOD (590 nm) Mean” value is 0.65 and the “Nrep = No. of replicates showing growth (out of 4)” value came to 4.
For `Cc1ccc(C(C)C)c(O)c1` [4:6, thymol], in test [2], the “DeltaOD (450 nm) Mean” value is reported as −0.58, the “DeltaOD (590 nm) Mean” value is 0.54 and the “Nrep = No. of replicates showing growth (out of 4)” value was 4.
For `CC1=CCC(O)(C(C)C)CC1` (centres unmarked) [4:10, terpineol], in test [2], the “DeltaOD (450 nm) Mean” value was −0.45, the “DeltaOD (590 nm) Mean” value came to 0.64 and the “Nrep = No. of replicates showing growth (out of 4)” value is listed as 4.
Take `Cc1ccc(C(C)C)c(O)c1` [4:3, thymol]: in test [2], the “DeltaOD (450 nm) Mean” value is recorded as −0.54, the “DeltaOD (590 nm) Mean” value was found to be 0.56 and the “Nrep = No. of replicates showing growth (out of 4)” value is reported as 4.
`Cc1ccc(C(C)C)c(O)c1` [4:4, thymol]: in test [2], the “DeltaOD (450 nm) Mean” value is listed as −0.57, the “DeltaOD (590 nm) Mean” value came to 0.55 and the “Nrep = No. of replicates showing growth (out of 4)” value is given as 4.
For the compound `Cc1ccc(C(C)C)c(O)c1` [4:8, thymol], in test [2], the “DeltaOD (450 nm) Mean” value was −0.58, the “DeltaOD (590 nm) Mean” value was 0.55 and the “Nrep = No. of replicates showing growth (out of 4)” value was found to be 4.
`Cc1ccc(C(C)C)c(O)c1` [4:7, thymol]: in test [2], the “DeltaOD (450 nm) Mean” value is −0.59, the “DeltaOD (590 nm) Mean” value was found to be 0.54 and the “Nrep = No. of replicates showing growth (out of 4)” value amounted to 4.
`Cc1ccc(C(C)C)c(O)c1` [4:5, thymol]: in test [2], the “DeltaOD (450 nm) Mean” value is listed as −0.58, the “DeltaOD (590 nm) Mean” value is given as 0.55 and the “Nrep = No. of replicates showing growth (out of 4)” value is given as 4.
In the same order, the values of `Cc1cc(O)cc(C(C)C)c1` [4:20, 3-isopropyl-5-methylphenol] are −0.56, 0.57 and 4.
On to `Cc1cc(O)ccc1C(C)C` [4:27, 4-isopropyl-3-methylphenol], for which, in test [2], the “DeltaOD (450 nm) Mean” value is listed as −0.48, the “DeltaOD (590 nm) Mean” value is recorded as 0.58 and the “Nrep = No. of replicates showing growth (out of 4)” value turned out to be 4.
Regarding `CC1=CCC(O)(C(C)C)CC1` (centres unmarked) [4:17, terpineol], in test [2], the “DeltaOD (450 nm) Mean” value is on record as −0.53, the “DeltaOD (590 nm) Mean” value is reported as 0.67 and the “Nrep = No. of replicates showing growth (out of 4)” value is given as 4.
As to `CC1=CCC(O)(C(C)C)CC1` (centres unmarked) [4:14, terpineol], in test [2], the “DeltaOD (450 nm) Mean” value was −0.54, the “DeltaOD (590 nm) Mean” value turned out to be 0.56 and the “Nrep = No. of replicates showing growth (out of 4)” value came to 4.
As to `CC1=CCC(O)(C(C)C)CC1` (centres unmarked) [4:11, terpineol], in test [2], the “DeltaOD (450 nm) Mean” value is −0.47, the “DeltaOD (590 nm) Mean” value is on record as 0.59 and the “Nrep = No. of replicates showing growth (out of 4)” value is given as 4.
